Data published in patent US20100278938A1, “GENETIC TEST AND PET DIET” (MARS, INC, priority 2007, published 2010).

Test: Pharmacokinetic study of oral zinc gluconate, plasma zinc by atomic absorption spectrometry
Type: in vivo, Labrador Retrievers
Set-up: unit not given here
Experimental: Two unrelated nine-year old, healthy Labrador Retrievers (1 female and 1 male) were used in a pharmacokinetic study. Food was withheld for a 12-hour period prior to oral administration of zinc, and during the initial 6-hour testing period. Water was freely available. […] Heparinized blood samples (4 ml) were collected from the jugular vein before dosing (time 0) and 15, 30, 45, 60, 90, 120 minutes, and 4, 8, 12 and 24 hours after application of the drug. Plasma was stored at −20° C. until analysis for zinc using atomic absorption spectrometry.
In addition the test was used to detect a difference between group-1 and group-2 before the study, at recheck-1, and at recheck-2 (significance level p<0.05).

With zinc gluconate the “K01: absorption rate constant” value (Dog 1, oral 10 mg/kg) was 0.5672, the “K10: elimination rate constant” value (Dog 1, oral 10 mg/kg) was 0.05373 and the “K01: absorption rate constant” value (Dog 2, oral 5 mg/kg) was 1.161. For the same substance, the “K10: elimination rate constant” value (Dog 2, oral 5 mg/kg) was 0.03789.
